From article PMC11157767 (Molecular Cancer, 2024)

System: TFG-MET allograft tumors
Experiment: RNA-sequencing, differential expression and GSEA of TFG-MET allograft tumors
Format: in vivo, mouse
Settings: GSEA CAP vs Veh, C5 GO CC
Method: Error bars display standard error of mean, statistical significance was determined using t-test analysis. (****;p<0.0001, ***;p<0.001, **;p<0.01, *;p<0.05). […] Each dot represents an individual replicate. Error bars display standard error of the mean.
Each dot represents one gene.

SMILES: CNC(=O)c1ccc(-c2cnc3ncc(Cc4ccc5ncccc5c4)n3n2)cc1F [Capmatinib]
- NES GOCC_TRANSFERASE_COMPLEX (padj 2.19055e-16): -1.9384
- NES GOCC_NUCLEAR_SPECK (padj 5.1503e-15): -2.161
- NES GOCC_SPLICEOSOMAL_COMPLEX (padj 1.72395e-14): -2.415
- NES GOCC_CHROMOSOME_TELOMERIC_REGION (padj 7.63768e-14): -2.533
- NES GOCC_VACUOLAR_MEMBRANE (padj 7.95066e-13): 2.04
- NES GOCC_SMALL_SUBUNIT_PROCESSOME (padj 1.82971e-12): -2.75
- NES GOCC_NUCLEAR_PORE (padj 1.03541e-11): -2.588
- NES GOCC_FIBRILLAR_CENTER (padj 1.07393e-11): -2.424
- NES GOCC_CHROMATIN (padj 1.91271e-11): -1.714
- NES GOCC_PRERIBOSOME_LARGE_SUBUNIT_PRECURSOR (padj 2.94795e-11): -2.651
- NES GOCC_METHYLTRANSFERASE_COMPLEX (padj 4.53721e-11): -2.484
- NES GOCC_NUCLEAR_CHROMOSOME (padj 7.98955e-11): -2.219
- NES GOCC_RESPIRATORY_CHAIN_COMPLEX (padj 1.33777e-10): 2.821
- NES GOCC_NUCLEAR_PERIPHERY (padj 2.5338e-10): -2.3519
- NES GOCC_NUCLEAR_ENVELOPE (padj 3.91151e-9): -1.852
- NES GOCC_RIBONUCLEOPROTEIN_GRANULE (padj 4.48536e-8): -2.04
- NES GOCC_CATALYTIC_STEP_2_SPLICEOSOME (padj 5.62031e-8): -2.31
- NES GOCC_INTRACELLULAR_PROTEIN_CONTAINING_COMPLEX (padj 6.31135e-8): -1.665
- NES GOCC_TRANSCRIPTION_REGULATOR_COMPLEX (padj 7.03454e-8): -1.873
- NES GOCC_CAJAL_BODY (padj 7.11025e-8): -2.347
- NES GOCC_U2_TYPE_SPLICEOSOMAL_COMPLEX (padj 1.20627e-7): -2.187
- NES GOCC_CILIUM (padj 1.31956e-7): 1.633
- NES GOCC_CONDENSED_CHROMOSOME (padj 1.56303e-7): -2.04
- NES GOCC_IMMUNOGLOBULIN_COMPLEX (padj 1.76109e-7): 2.5876
- NES GOCC_CHROMOSOME_CENTROMERIC_REGION (padj 2.31902e-7): -2.023
- NES GOCC_TRANSFERASE_COMPLEX_TRANSFERRING_PHOSPHORUS_CONTAINING_GROUPS (padj 2.54822e-7): -1.9355
- NES GOCC_MOTILE_CILIUM (padj 6.10966e-7): 2.148
- NES GOCC_INNER_MITOCHONDRIAL_MEMBRANE_PROTEIN_COMPLEX (padj 1.03286e-6): 2.0966
- NES GOCC_HISTONE_METHYLTRANSFERASE_COMPLEX (padj 1.09294e-6): -2.238
- NES GOCC_TERTIARY_GRANULE (padj 1.29564e-6): 2.058
- NES GOCC_NUCLEAR_MEMBRANE (padj 1.93407e-6): -1.855
- NES GOCC_NADH_DEHYDROGENASE_COMPLEX (padj 2.62751e-6): 2.526
- NES GOCC_SM_LIKE_PROTEIN_FAMILY_COMPLEX (padj 3.06538e-6): -2.133
- NES GOCC_LATE_ENDOSOME_MEMBRANE (padj 3.31031e-6): 2.097
- NES GOCC_RNA_POLYMERASE_COMPLEX (padj 3.74343e-6): -2.068
- NES GOCC_HETEROCHROMATIN (padj 4.96006e-6): -2.172
- NES GOCC_PROTEIN_ACETYLTRANSFERASE_COMPLEX (padj 5.11894e-6): -2.115
- NES GOCC_CYTOPLASMIC_STRESS_GRANULE (padj 1.16359e-5): -2.152
- NES GOCC_VACUOLAR_LUMEN (padj 1.16897e-5): 1.934
- NES GOCC_SECRETORY_GRANULE_MEMBRANE (padj 1.40276e-5): 1.763
- NES GOCC_OXIDOREDUCTASE_COMPLEX (padj 1.71689e-5): 2.0601
- NES GOCC_EXTERNAL_SIDE_OF_PLASMA_MEMBRANE (padj 2.05111e-5): 1.72
- NES GOCC_CONDENSED_CHROMOSOME_CENTROMERIC_REGION (padj 2.22571e-5): -1.979
- NES GOCC_SNO_S_RNA_CONTAINING_RIBONUCLEOPROTEIN_COMPLEX (padj 3.58719e-5): -2.2
- NES GOCC_PHAGOCYTIC_VESICLE (padj 3.73055e-5): 1.9159
- NES GOCC_HOST_CELLULAR_COMPONENT (padj 4.79591e-5): -2.0648
- NES GOCC_SITE_OF_DNA_DAMAGE (padj 6.26347e-5): -2.003
- NES GOCC_AZUROPHIL_GRANULE (padj 6.43287e-5): 1.861
- NES GOCC_KINETOCHORE (padj 6.63265e-5): -1.897
- NES GOCC_AUTOPHAGOSOME (padj 6.99707e-5): 2.034
- NES GOCC_RNA_POLYMERASE_II_TRANSCRIPTION_REGULATOR_COMPLEX (padj 0.000108731): -1.813
- NES GOCC_PML_BODY (padj 0.000125034): -1.9697
- NES GOCC_EXORIBONUCLEASE_COMPLEX (padj 0.000154107): -2.113
- NES GOCC_ENDORIBONUCLEASE_COMPLEX (padj 0.000165343): -2.09
- NES GOCC_SMALL_NUCLEAR_RIBONUCLEOPROTEIN_COMPLEX (padj 0.000179714): -2.0229
- NES GOCC_IMMUNOGLOBULIN_COMPLEX_CIRCULATING (padj 0.000186482): 2.324
- NES GOCC_TERTIARY_GRANULE_MEMBRANE (padj 0.000272562): 2.004
- NES GOCC_VESICLE_LUMEN (padj 0.000275827): 1.602
- NES GOCC_LYSOSOMAL_LUMEN (padj 0.000331136): 1.858
- NES GOCC_REPLICATION_FORK (padj 0.000358866): -1.947
- NES GOCC_PRECATALYTIC_SPLICEOSOME (padj 0.000460788): -1.97
- NES GOCC_EUCHROMATIN (padj 0.000526361): -2.018
- NES GOCC_FICOLIN_1_RICH_GRANULE_MEMBRANE (padj 0.000558545): 2.085
- NES GOCC_CYTOCHROME_COMPLEX (padj 0.000649179): 2.153
- NES GOCC_PROTEIN_DNA_COMPLEX (padj 0.000678026): -1.836
- NES GOCC_SITE_OF_DOUBLE_STRAND_BREAK (padj 0.000757696): -1.897
- NES GOCC_PROTON_TRANSPORTING_TWO_SECTOR_ATPASE_COMPLEX (padj 0.000783651): 2.098
- NES GOCC_SPECIFIC_GRANULE (padj 0.000783651): 1.663
- NES GOCC_MLL1_2_COMPLEX (padj 0.000871379): -2.023
- NES GOCC_RESPIRATORY_CHAIN_COMPLEX_IV (padj 0.000871379): 2.188
- NES GOCC_CILIARY_TRANSITION_ZONE (padj 0.000882106): 1.976
- NES GOCC_BLOOD_MICROPARTICLE (padj 0.000959119): 1.774
- NES GOCC_PHAGOCYTIC_VESICLE_MEMBRANE (padj 0.00129051): 1.86
- NES GOCC_SECONDARY_LYSOSOME (padj 0.00130287): 2.219
- NES GOCC_TRANSCRIPTION_ELONGATION_FACTOR_COMPLEX (padj 0.00152226): -1.897
- NES GOCC_NUCLEAR_REPLICATION_FORK (padj 0.00173594): -1.935
- NES GOCC_TELOMERASE_HOLOENZYME_COMPLEX (padj 0.00174948): -1.978
- NES GOCC_H4_HISTONE_ACETYLTRANSFERASE_COMPLEX (padj 0.00185976): -1.863
- NES GOCC_CILIARY_PLASM (padj 0.00189918): 1.756
- NES GOCC_POLYSOME (padj 0.00219768): -1.796
- NES GOCC_PCG_PROTEIN_COMPLEX (padj 0.00279919): -1.842
- NES GOCC_T_CELL_RECEPTOR_COMPLEX (padj 0.00319727): 2.053
- NES GOCC_U2_TYPE_CATALYTIC_STEP_2_SPLICEOSOME (padj 0.00319727): -1.927
- NES GOCC_SIDE_OF_MEMBRANE (padj 0.00331543): 1.318
- NES GOCC_AZUROPHIL_GRANULE_LUMEN (padj 0.00386407): 1.725
- NES GOCC_EUKARYOTIC_TRANSLATION_INITIATION_FACTOR_3_COMPLEX (padj 0.00386407): -1.892
- NES GOCC_PROTON_TRANSPORTING_TWO_SECTOR_ATPASE_COMPLEX_PROTON_TRANSPORTING_DOMAIN (padj 0.00392051): 2.029
- NES GOCC_SYNAPTIC_VESICLE_MEMBRANE (padj 0.00392051): 1.708
- NES GOCC_SMN_SM_PROTEIN_COMPLEX (padj 0.00460194): -1.879
- NES GOCC_MHC_PROTEIN_COMPLEX (padj 0.00465351): 2.03
- NES GOCC_PLASMA_MEMBRANE_BOUNDED_CELL_PROJECTION_CYTOPLASM (padj 0.00477082): 1.5011
- NES GOCC_TRANSLATION_PREINITIATION_COMPLEX (padj 0.00477082): -1.882
- NES GOCC_9PLUS2_MOTILE_CILIUM (padj 0.00505147): 1.741
- NES GOCC_FICOLIN_1_RICH_GRANULE (padj 0.00518961): 1.502
- NES GOCC_ENDOSOME_MEMBRANE (padj 0.00609112): 1.2787
- NES GOCC_PRESPLICEOSOME (padj 0.00659701): -1.8326
- NES GOCC_ATPASE_COMPLEX (padj 0.007008): -1.657
- NES GOCC_ENDOLYSOSOME (padj 0.00786364): 1.964
- NES GOCC_EUKARYOTIC_48S_PREINITIATION_COMPLEX (padj 0.00886352): -1.849
- NES GOCC_PHAGOPHORE_ASSEMBLY_SITE (padj 0.00895831): 1.892
- NES GOCC_INTRACILIARY_TRANSPORT_PARTICLE (padj 0.00906928): 1.972
- NES GOCC_TRANSCRIPTION_REPRESSOR_COMPLEX (padj 0.00954254): -1.652
